PubChem BioAssay AID248 (DTP/NCI, 2004)
Where “and” joins values, the source holds several entries; their conditions need not be identical. Identical values can stand only once. Inconclusive results and toxic doses are left out. Rule as the data show it: active = T/C of 150% or more; inactive = T/C below 125%.

Test system: L1210 leukemia ip in BDF1 mice, survival T/C
Experiment: NCI In Vivo Anticancer Drug Screen. Data for tumor model L1210 Leukemia (intraperitoneal) in B6D2F1 (BDF1) mice
Settings: endpoint: mean survival time, higher = longer survival
Method in brief: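 In this screen, tumor-bearing mice given compound are compared to those given vehicle, and their survival values are reported as a treated-to-control quotient.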

[1] = dose: 100.0 mg/kg/injection, schedule: Q04DX003 (ip), vehicle: Klucel (hydroxypropylcellulose) (HPC)
[2] = dose: 200.0 mg/kg/injection, schedule: Q04DX003 (ip), vehicle: Klucel (hydroxypropylcellulose) (HPC)
[3] = dose: 400.0 mg/kg/injection, schedule: Q04DX003 (ip), vehicle: Klucel (hydroxypropylcellulose) (HPC)
[4] = dose: 100.0 mg/kg/injection, schedule: Q01DX009 (ip), vehicle: Klucel (hydroxypropylcellulose) (HPC)
[5] = dose: 100.0 mg/kg/injection, schedule: Q01DX009 (ip), vehicle: saline with Tween-80
[6] = dose: 100.0 mg/kg/injection, schedule: Q04DX003 (ip), vehicle: saline with Tween-80
[7] = dose: 200.0 mg/kg/injection, schedule: Q01DX009 (ip), vehicle: Klucel (hydroxypropylcellulose) (HPC)
[8] = dose: 200.0 mg/kg/injection, schedule: Q01DX009 (ip), vehicle: saline with Tween-80
[9] = dose: 200.0 mg/kg/injection, schedule: Q04DX003 (ip), vehicle: saline with Tween-80
[10] = dose: 400.0 mg/kg/injection, schedule: Q01DX009 (ip), vehicle: Klucel (hydroxypropylcellulose) (HPC)
[11] = dose: 400.0 mg/kg/injection, schedule: Q01DX009 (ip), vehicle: saline with Tween-80
[12] = dose: 400.0 mg/kg/injection, schedule: Q04DX003 (ip), vehicle: saline with Tween-80
[13] = dose: 100.0 mg/kg/injection, schedule: Q01DX001 (ip), vehicle: saline
[14] = dose: 200.0 mg/kg/injection, schedule: Q01DX001 (ip), vehicle: saline
[15] = dose: 400.0 mg/kg/injection, schedule: Q01DX001 (ip), vehicle: saline
[16] = dose: 100.0 mg/kg/injection, schedule: Q04DX003 (ip), vehicle: saline
[17] = dose: 200.0 mg/kg/injection, schedule: Q04DX003 (ip), vehicle: saline
[18] = dose: 400.0 mg/kg/injection, schedule: Q04DX003 (ip), vehicle: saline

Measured: T/C

c1ccc(C2(c3ccccc3)CC([P+](c3ccccc3)(c3ccccc3)c3ccccc3)=NN2CC[P+](c2ccccc2)(c2ccccc2)c2ccccc2)cc1
inactive: dose: 1.56 mg/kg/injection, schedule: Q01DX001 (ip), vehicle: saline 107 % of control | dose: 3.12 mg/kg/injection, schedule: Q01DX001 (ip), vehicle: saline 91 % of control | dose: 6.25 mg/kg/injection, schedule: Q01DX001 (ip), vehicle: saline 108 % of control and 91 % of control

CSc1nsc(N)n1
inactive: dose: 75.0 mg/kg/injection, schedule: Q01DX001 (ip), vehicle: other 102 % of control | [1] 100 % of control | dose: 150.0 mg/kg/injection, schedule: Q01DX001 (ip), vehicle: other 100 % of control | [2] 100 % of control | dose: 300.0 mg/kg/injection, schedule: Q01DX001 (ip), vehicle: other 103 % of control | [3] 107 % of control

CCOCCN=Cc1c[nH]c2ccccc12
inactive: [1] 98 % of control | [2] 95 % of control | [3] 98 % of control

CCOC(=O)c1c(Cl)c(Cl)c(Cl)c(Cl)c1C(=O)OCC
inactive: [4] 105 % of control | [5] 101 % of control | [1] 90 % of control | [6] 100 % of control | [7] 104 % of control | [8] 90 % of control | [2] 95 % of control | [9] 104 % of control | [10] 100 % of control | [11] 93 % of control | [3] 105 % of control | [12] 102 % of control

COc1ccc(OCCOC(=O)Nc2cccc(C(F)(F)F)c2)cc1
inactive: [5] 109 % of control | [8] 96 % of control | [11] 91 % of control

O=C(O)CCc1cccc(O)c1
inactive: dose: 25.0 mg/kg/injection, schedule: Q04DX002 (ip), vehicle: saline 111 % of control | dose: 50.0 mg/kg/injection, schedule: Q04DX002 (ip), vehicle: saline 111 % of control | dose: 100.0 mg/kg/injection, schedule: Q04DX002 (ip), vehicle: saline 101 % of control

COc1ccc(OC)c(NC(=O)Oc2ccc(Cl)cc2C)c1
inactive: [1] 97 % of control | [2] 98 % of control | [3] 97 % of control

CCCCCCCC/C=C\CCCCCCCCOCC(O)CO (stereo not given)
inactive: dose: 50.0 mg/kg/injection, schedule: Q01DX009 (ip), vehicle: acetone 87 % of control | [13] 87 % of control | dose: 100.0 mg/kg/injection, schedule: Q01DX009 (ip), vehicle: acetone 93 % of control | dose: 100.0 mg/kg/injection, schedule: Q04DX003 (ip), vehicle: acetone 100 % of control | [14] 91 % of control | dose: 200.0 mg/kg/injection, schedule: Q04DX003 (ip), vehicle: acetone 103 % of control | [15] 86 % of control

NOCc1cc2c(cc1Cl)OCO2
inactive: dose: 100.0 mg/kg/injection, schedule: Q01DX001 (ip), vehicle: Klucel (hydroxypropylcellulose) (HPC) 94 % of control | [4] 94 % of control | [1] 90 % of control | dose: 200.0 mg/kg/injection, schedule: Q01DX001 (ip), vehicle: Klucel (hydroxypropylcellulose) (HPC) 88 % of control | [7] 92 % of control | [2] 96 % of control | dose: 400.0 mg/kg/injection, schedule: Q01DX001 (ip), vehicle: Klucel (hydroxypropylcellulose) (HPC) 100 % of control | [10] 86 % of control | [3] 96 % of control

O=C1NC(c2ccc(Cl)cc2)N2C(=O)NC(c3ccc(Cl)cc3)N12 (stereo not given)
inactive: dose: 50.0 mg/kg/injection, schedule: Q04DX002 (ip), vehicle: saline with Tween-80 97 % of control | dose: 100.0 mg/kg/injection, schedule: Q04DX002 (ip), vehicle: saline with Tween-80 94 % of control | dose: 200.0 mg/kg/injection, schedule: Q04DX002 (ip), vehicle: saline with Tween-80 97 % of control

O=C(Oc1ccc(Cl)cc1)c1ccccc1
inactive: [4] 95 % of control | [1] 103 % of control | [7] 101 % of control | [2] 105 % of control | [10] 101 % of control | [3] 92 % of control

CCCCCCCCCCCCCCCCC(=O)CC
inactive: [1] 96 % of control | [2] 91 % of control | [3] 92 % of control

NC(=O)CC(NC(=O)OCc1ccccc1)C(N)=O (stereo not given)
inactive: [1] 93 % of control | [2] 87 % of control | [3] 90 % of control

O=C(Nc1ccccc1)OCCCC1CCCC1
inactive: dose: 100.0 mg/kg/injection, schedule: Q01DX009 (sc), vehicle: olive oil, sesame oil, peanut oil 108 % of control | dose: 200.0 mg/kg/injection, schedule: Q01DX009 (sc), vehicle: olive oil, sesame oil, peanut oil 105 % of control | dose: 400.0 mg/kg/injection, schedule: Q01DX009 (sc), vehicle: olive oil, sesame oil, peanut oil 100 % of control

CN(C)C(=S)SCC(=O)[O][Sn]([c]1ccccc1)([c]1ccccc1)[c]1ccccc1
inactive: dose: 6.25 mg/kg/injection, schedule: Q04DX002 (ip), vehicle: saline with Tween-80 96 % of control | dose: 12.5 mg/kg/injection, schedule: Q04DX002 (ip), vehicle: saline with Tween-80 93 % of control | dose: 25.0 mg/kg/injection, schedule: Q04DX002 (ip), vehicle: saline with Tween-80 104 % of control

COC(=O)C(NC(=O)CCl)C(=O)OC
inactive: dose: 100.0 mg/kg/injection, schedule: Q04DX003 (ip), vehicle: other 96 % of control | dose: 200.0 mg/kg/injection, schedule: Q04DX003 (ip), vehicle: other 93 % of control | dose: 400.0 mg/kg/injection, schedule: Q04DX003 (ip), vehicle: other 94 % of control

CN(C)/C=C(\C#N)C=O
inactive: dose: 75.0 mg/kg/injection, schedule: Q01DX001 (ip), vehicle: saline 103 % of control | dose: 150.0 mg/kg/injection, schedule: Q01DX001 (ip), vehicle: saline 101 % of control

[NH-]S(=O)(=O)O.[NH-]S(=O)(=O)O.[NH2-].[NH2-].[Pt+4]
inactive: dose: 10.0 mg/kg/injection, schedule: Q01DX009 (ip), vehicle: saline with Tween-80 100 % of control | dose: 20.0 mg/kg/injection, schedule: Q01DX009 (ip), vehicle: saline with Tween-80 90 % of control | dose: 40.0 mg/kg/injection, schedule: Q01DX009 (ip), vehicle: saline with Tween-80 100 % of control

C=CCOC(=O)CCCCCCCCCCC
inactive: [5] 107 % of control | [8] 107 % of control | [11] 96 % of control

C/C(CCC(=O)O)=N/O
inactive: dose: 100.0 mg/kg/injection, schedule: Q01DX009 (ip), vehicle: saline 101 % of control | [16] 95 % of control | dose: 200.0 mg/kg/injection, schedule: Q01DX009 (ip), vehicle: saline 97 % of control | [17] 100 % of control | dose: 400.0 mg/kg/injection, schedule: Q01DX009 (ip), vehicle: saline 105 % of control | [18] 101 % of control

CCOC(=O)C12CCC(C(=O)O)(CC1)CC2
inactive: dose: 75.0 mg/kg/injection, schedule: Q04DX002 (ip), vehicle: Klucel (hydroxypropylcellulose) (HPC) 100 % of control | dose: 150.0 mg/kg/injection, schedule: Q04DX002 (ip), vehicle: Klucel (hydroxypropylcellulose) (HPC) 106 % of control | dose: 300.0 mg/kg/injection, schedule: Q04DX002 (ip), vehicle: Klucel (hydroxypropylcellulose) (HPC) 110 % of control

O=C(Cc1ccccn1)c1ccccn1
inactive: [13] 98 % of control | [16] 100 % of control | [14] 117 % of control | [17] 102 % of control | [15] 119 % of control | [18] 98 % of control

O=S1(=O)Cc2ccccc2-c2ccccc2C1
inactive: dose: 100.0 mg/kg/injection, schedule: Q04DX002 (ip), vehicle: gum acacia 103 % of control | dose: 200.0 mg/kg/injection, schedule: Q04DX002 (ip), vehicle: gum acacia 103 % of control | dose: 400.0 mg/kg/injection, schedule: Q04DX002 (ip), vehicle: gum acacia 106 % of control

CCOc1ccccc1NC(=O)C(Br)C(Br)C(=O)O (stereo not given)
inactive: [5] 96 % of control | [6] 100 % of control | [8] 97 % of control | [9] 95 % of control | [11] 96 % of control | [12] 101 % of control
